Among the test systems are NCI-H23 lung; NCI-H522 lung; SK-MEL-5 melanoma; A498 renal; UACC-62 melanoma; OVCAR-8 ovarian; NCI-H460 lung; HCC-2998 colon; HL-60(TB) leukemia.
Experiment in all cases: NCI-60 cell line screen, 48 h

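Compound exposure: 48 hours, 5 concentrations, 96-well plates. TGI marks complete inhibition of growth.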 Bounds are passed on as bounds.

For the molecule `CC(=O)Nc1ccc(OCC(O)CO)cc1` (stereo not given), the TGI in the test on NCI-H23 lung, with NCI-H522 lung, in the test with SK-MEL-5 melanoma, in the test on A498 renal, in the test on UACC-62 melanoma and with OVCAR-8 ovarian was more than 100 µM in each case. The TGI with NCI-H460 lung and in the test on HCC-2998 colon was more than 100 µM throughout.

Turning to `COc1ccc(S(=O)(=O)N/N=C/CN2C(=O)c3ccccc3C2=O)cc1`, the TGI in the test with NCI-H23 lung, in the test with NCI-H522 lung, with SK-MEL-5 melanoma, in the test with HL-60(TB) leukemia, in the test with A498 renal and in the test on UACC-62 melanoma was more than 100 µM each time. The TGI in the test with OVCAR-8 ovarian, with NCI-H460 lung and in the test on HCC-2998 colon was more than 100 µM each time.

`O=C(OCc1ccccc1)c1ccccc1-c1c2ccc(=O)cc-2oc2cc(OCc3ccccc3)ccc12`: the TGI in the test with NCI-H23 lung was 49.6 µM; in the test with SK-MEL-5 melanoma, 17.8 µM; in the test with HL-60(TB) leukemia, 22.8 µM; with A498 renal, 88.2 µM; in the test on UACC-62 melanoma it was 24.6 µM; with OVCAR-8 ovarian, 74 µM. For the same molecule, the TGI in the test with NCI-H460 lung came to 35.8 µM; in the test on HCC-2998 colon, 56 µM.

Regarding `CCOC(=O)C1C(=O)c2cccc(OC)c2C2COC(=O)N12` (stereo not given), the TGI in the test with NCI-H23 lung, with NCI-H522 lung, in the test with SK-MEL-5 melanoma, in the test with HL-60(TB) leukemia, in the test on UACC-62 melanoma and in the test with OVCAR-8 ovarian was more than 100 µM throughout. Also, the TGI in the test on NCI-H460 lung and with HCC-2998 colon was more than 100 µM in each case.

As for `CC1CCC2[C@@H](C)COC3O[C@]4(C)CCC1C32OO4` (stereo not given in full), the TGI in the test on NCI-H23 lung, in the test with NCI-H522 lung, with SK-MEL-5 melanoma, in the test with A498 renal, in the test with UACC-62 melanoma and with OVCAR-8 ovarian was more than 100 µM each time. Moreover, the TGI in the test on NCI-H460 lung and in the test with HCC-2998 colon was more than 100 µM in each case.

With `CCc1cccc(CC)c1NC(=O)C1=CNC(C)=C(C(=O)Nc2c(CC)cccc2CC)C1c1ccc(O)c(OC)c1` (stereo not given), the TGI is more than 100 µM in the test with NCI-H23 lung; 77.4 µM in the test with NCI-H522 lung; more than 100 µM in the test on SK-MEL-5 melanoma; 57.4 µM in the test with HL-60(TB) leukemia; 76.4 µM in the test on A498 renal; more than 100 µM with OVCAR-8 ovarian. In addition, the TGI with NCI-H460 lung is 98.8 µM; in the test with HCC-2998 colon, 88.8 µM.

Take `CCN(CC)c1ccc(N=C2C=CC(=C(C#N)C#N)c3ccccc32)c(C)c1`: the TGI was 3.33 µM with NCI-H23 lung; 2.92 µM in the test on SK-MEL-5 melanoma; 3.61 µM in the test on HL-60(TB) leukemia; 3.43 µM in the test on UACC-62 melanoma; 7.28 µM in the test on OVCAR-8 ovarian; 8.41 µM with NCI-H460 lung.

As to `CN/N=C(/CC(=O)c1sc(NNC(C)=O)nc1C)C(=O)Nc1ccc(OC)cc1OC`, the TGI in the test on NCI-H23 lung, in the test with NCI-H522 lung, with SK-MEL-5 melanoma, in the test with HL-60(TB) leukemia, in the test with A498 renal and in the test on UACC-62 melanoma was more than 100 µM in each case. Further, the TGI in the test on OVCAR-8 ovarian, in the test on NCI-H460 lung and in the test with HCC-2998 colon was more than 100 µM in each case.

With `N#CC12CC3(CCC1CCC1(C2)OCCO1)OCCO3` (stereo not given), the TGI with NCI-H23 lung, with NCI-H522 lung, with SK-MEL-5 melanoma, in the test with HL-60(TB) leukemia, with A498 renal and in the test on UACC-62 melanoma was more than 100 µM in each case. Besides, the TGI in the test on OVCAR-8 ovarian, in the test with NCI-H460 lung and in the test with HCC-2998 colon was more than 100 µM each time.

As to `Nc1ncnc2c1ncn2COC/C=C/I`, the TGI in the test with NCI-H23 lung, in the test on NCI-H522 lung, with SK-MEL-5 melanoma, in the test on A498 renal, in the test on UACC-62 melanoma and with OVCAR-8 ovarian was more than 100 µM each time. Also, the TGI with NCI-H460 lung and in the test on HCC-2998 colon was more than 100 µM in each case.

Take `CCCCCC/C(CC(=O)CCC(=O)NCCc1ccccc1)=N\NC(=O)c1ccc2ccccc2c1O`: the TGI is more than 100 µM in the test with NCI-H23 lung; 69.5 µM in the test with SK-MEL-5 melanoma; 33.7 µM with HL-60(TB) leukemia; 50.8 µM in the test with UACC-62 melanoma; more than 100 µM with OVCAR-8 ovarian; more than 100 µM in the test on NCI-H460 lung. The TGI in the test with HCC-2998 colon is more than 100 µM.

In the case of `ClCCCN1CCCCC1CCl` (stereo not given), the TGI in the test on NCI-H23 lung, in the test with NCI-H522 lung, with SK-MEL-5 melanoma, with HL-60(TB) leukemia, in the test with A498 renal and in the test with UACC-62 melanoma was more than 100 µM in each case. Besides, the TGI with OVCAR-8 ovarian, in the test on NCI-H460 lung and in the test with HCC-2998 colon was more than 100 µM throughout.

Turning to `O=C1OC(=O)C2C1C1C(c3ccccc3)=C(c3ccccc3)C2(O)C2C(=O)OC(=O)C12` (stereo not given), the TGI in the test with NCI-H23 lung, in the test with NCI-H522 lung, with A498 renal, in the test on UACC-62 melanoma, in the test with OVCAR-8 ovarian and in the test on NCI-H460 lung was more than 100 µM each time. Moreover, in the test on HCC-2998 colon, the TGI was more than 100 µM.

For `COc1c(OC2OC(CO)C(O)C(O)C2O)cc2c(c1OC)-c1ccc(OC)c(=O)cc1[C@@H](NC(C)=O)CC2` (stereo not given in full), the TGI in the test with NCI-H23 lung was more than 100 µM; in the test on NCI-H522 lung, 99.3 µM; with SK-MEL-5 melanoma it was more than 94.5 µM; with HL-60(TB) leukemia, more than 100 µM; with A498 renal, more than 100 µM; in the test with UACC-62 melanoma it was more than 100 µM. In addition, the TGI with OVCAR-8 ovarian, with NCI-H460 lung and in the test with HCC-2998 colon was more than 100 µM each time.

For `C#Cc1ccccc1N1C(=O)C=CC1=O`, the TGI with NCI-H23 lung, in the test on NCI-H522 lung, in the test on SK-MEL-5 melanoma, with HL-60(TB) leukemia, in the test on A498 renal and in the test on UACC-62 melanoma was more than 100 µM each time. For the same molecule, the TGI with OVCAR-8 ovarian and with NCI-H460 lung was more than 100 µM throughout.

`CCOc1cc[n+](C(=C=[N-])C#N)cc1`: the TGI with NCI-H23 lung, in the test on NCI-H522 lung, in the test on SK-MEL-5 melanoma, in the test on HL-60(TB) leukemia, with A498 renal and in the test with UACC-62 melanoma was more than 100 µM throughout. Also, the TGI with OVCAR-8 ovarian, in the test on NCI-H460 lung and in the test on HCC-2998 colon was more than 100 µM in each case.

The values above are taken from PubChem BioAssay (NCI).
